Laboratory results taken from patent US20240368178A1, “IMIDAZOCYCLIC COMPOUND AND APPLICATION THEREOF” (DONGBAO PURPLE STAR (HANGZHOU) BIOPHARMACEUTICAL CO., LTD., priority 2021, published 2024).

Tests used:
Human-GLP-1 receptor = Human-GLP-1 receptor (Homo sapiens (Human), UniProt P43220); test: In vitro cell activity assay (cAMP, HEK293 GLP-1 cells); assay type: cell-based; details: cAMP detection
Protocol: Experimental Example 1: In Vitro Cell Activity Assay
The host cell HEK293 for GLP-1 was constructed by WuXi AppTec (Shanghai) Co., Ltd.
cAMP Detection Kit, Cisbio (Cat #62AM4PEJ); 1M HEPES, Invitrogen (Cat #15630-106); 1×HBSS, Invitrogen (Cat #14025); BSA, Sigma (Cat #B2064); IBMX, Sigma (Cat #I5879); Exenatide, Hao Yuan (HY-13443A).
The compounds were prepared into a working solution with a concentration of 30 μM using DMSO. In this assay, each sample was used in an amount of 5 μL.
• 24.5 mL of Hanks Buffer Saline Solution (HBSS), final concentration: lx; • 125 μL of HEPES 1M, final concentration: 5 mM; • 333 μL of 7.5% BSA Solution, final concentration: 0.1%; • 25 μL of IBMX 500 mmol/L, final concentration: 0.5 mmol/L.
Preparation of cAMP assay reagent: 250 μL of cAMP-D2 and 250 μL of anti-cAMP cryptate reagent were added to 4 mL of lysis buffer and mixed gently.
The compound to be tested was diluted 3-fold at 10 points with a starting concentration of 30 μM, and the dilution was completed using Bravo.
Exenatide, used as a control compound, was diluted 3-fold at 10 points with a starting concentration of 500 nM, and the dilution was completed using Bravo. […]
• 1) A GLP-1 cell cryopreservation tube was rapidly thawed in a 37° C. water bath. • 2) The cell suspension was transferred to a 15 mL Transfer centrifuge tube and gently rinsed with 10 mL of HBSS. • 3) The centrifuge tube was centrifuged at 1000 rpm for 1 minute at room temperature. • 4) The supernatant was discarded. • 5) The cells at the bottom were gently dispersed, then rinsed with 10 mL of HBSS, centrifuged to sedimentation, and finally resuspended in the experimental buffer. • 6) The cell density and activity were measured using Vi-cell. • 7) The concentration of GLP-1 cells was diluted to 2.0*105/mL with the experimental buffer. • 8) […] of the diluted cell suspension was transferred to the OptiPlate-384 plate. • 9) The plate was incubated at room temperature for 30 minutes. […]
TopSeal-A was removed and the result was read in EnVision.

CYP2C19 = CYP2C19 (Homo sapiens (Human), UniProt P33261); test: Time-dependent inhibition (TDI) of CYP2C19 in human liver microsomes; assay type: in vitro ADME
Protocol: The time-dependent inhibitory effect of the test compound on the activity of human liver microsomal cytochrome P450 isoenzyme CYP2C19 was determined.
The experiment was divided into two groups. In the first group, human liver microsomes (HLM) were used as the incubation system. The test articles with a series of concentrations were added to the incubation system, followed by the addition of a coenzyme factor (NADPH) solution. The preincubation was carried out at 37° C. for 30 minutes. After preincubation, a probe substrate solution was added thereto. After a certain period of incubation, the reaction was terminated. The amount of probe substrate metabolites generated in the incubation solution was determined, and the enzyme activity was calculated. In the second group, human liver microsomes (HLM) were used as the incubation system. The test articles with a series of concentrations were added to the incubation system, followed by the addition of potassium phosphate buffer. The preincubation was carried out at 37° C. for 30 minutes. After preincubation, a mixture of NADPH and the probe substrate was added thereto. After a certain period of incubation, the reaction was terminated. The amount of probe substrate metabolites generated in the incubation solution was determined, and the enzyme activity was calculated. […]
Then, 147.5 μL of human liver microsomal working solution was added to the reaction plate, and the reaction plate was placed on ice for use; at this time, 2.50 μL of the test compound (N=1) and the working solution (N=2) of the positive control inhibitor at various concentrations were added to the corresponding wells, and the corresponding organic solvent was added to the group without inhibitors (test compound or positive inhibitor); the reaction plate was incubated for 10 minutes at 37° C., and then 50.0 μL of NADPH solution or potassium phosphate buffer was added to reaction wells of the first or second group, respectively, to start the reaction; the reaction plate was pre-incubated at 37° C. for 30 minutes; 50.0 μL of the substrate solution or a mixture of NADPH and the substrate was added to the reaction wells of the first or second group, respectively, to start the reaction. 20 minutes later, 250 μL of precooled acetonitrile solution (containing internal standards of 200 ng/mL tolbutamide and labetalol) was added to terminate the reaction; the reaction plate was placed on a shaker and shaken for 10 minutes to mix uniformly; then, the plate was centrifuged for 20 minutes at 4° C. and 4000 rpm; 200 μL of the supernatant was added to 200 μL of water to dilute the sample; the plate was finally sealed and shaken for 10 minutes to mix uniformly; the sample was then analyzed by LC/MS/MS.

human hepatocytes = test: HMS CLint (liver) hepatocyte metabolic stability, human; assay type: in vitro ADME
Protocol: (§1) Experimental purpose: to test the metabolic stability of the test sample in human and rat liver cells.
(§2) • (1) test compound (10 mM), reference substance: 7-ethoxycoumarin (30 mM), 7-hydroxycoumarin (reference substance, 30 mM); • mouse hepatocytes with cell viability of 73.8%, supplier Cat No.: BioreclamationlVTM005052; • rat hepatocytes with cell viability of 78.3%, supplier Cat No.: BioreclamationlVTM00005-T; • canine hepatocytes with cell viability of 80.2%, supplier Cat No.: BioreclamationlVTM00205; • monkey liver cells with cell viability of 80.9%, supplier Cat No.: RILD HP—SXH-02M; • human hepatocytes with cell viability of 94.6%, supplier Cat No.: Bioreclamation IVTX008001. • (2) Buffer system:
(§3) Thawing medium: Williams' medium E containing 5% fetal bovine serum, 30% Percoll solution, and other auxiliary materials.
(§4) Incubation medium: Williams' medium E (without phenol red) containing 2 mM L-glutamine and 25 mM 4-(2-hydroxyethyl)-1-piperazineethanesulfonic acid.
(§5) Termination solution: acetonitrile containing 200 ng/mL tolbutamide and labetalol as internal standard. […]
(§6) The residual rates of the test compound and the control compound were determined using the following formula: […]
(§7) The elimination rate constant (k) of the test compound and the control compound in hepatocytes was calculated by plotting the logarithm of the residual rate against time. […]

monkey liver cells = test: HMS CLint (liver) hepatocyte metabolic stability, cynomolgus monkey; assay type: in vitro ADME; details: cynomolgus monkey hepatocytes
Protocol: as §1, §2, §3, §4, §5, §6, §7

canine hepatocytes = test: HMS CLint (liver) hepatocyte metabolic stability, dog; assay type: in vitro ADME
Protocol: as §1, §2, §3, §4, §5, §6, §7

rat hepatocytes = test: HMS CLint (liver) hepatocyte metabolic stability, rat; assay type: in vitro ADME
Protocol: as §1, §2, §3, §4, §5, §6, §7

[1] = In vivo PK parameter testing in rats; set-up: species or system SD rat; details: male SD rats
Protocol: (§8) Male SD rats and male cynomolgus monkeys were used as test animals, and the plasma concentration of the compound was determined and the pharmacokinetic behavior was evaluated after a single oral administration.
Two groups of healthy rats (fasted) were administered by intravenous injection (IV) and oral gavage (PO), each group with 2 rats. The vehicle was a mixture of 20% PEG400, 10% solutol, and 70% water. After mixing the compound to be tested with the vehicle, the mixture was vortexed and sonicated to prepare clear solutions of 0.2 mg/mL and 0.5 mg/mL. The intravenous injection dose for rats was 1.0 mg/kg, and the oral gavage dose was 5.0 mg/kg. After administration, the whole blood was collected at the time points of 0.083 hours, 0.25 hours, 0.5 hours, 1.0 hour, 2.0 hours, 4.0 hours, 8.0 hours, 12.0 hours, and 24.0 hours. Plasma was prepared from the whole blood and analyzed for drug concentration by LC-MS/MS.

[2] = In vivo PK parameter testing in cynomolgus monkeys; set-up: species or system cynomolgus monkey; details: male cynomolgus monkeys
Protocol: as §8
Two groups of healthy male cynomolgus monkeys (fasted) were administered by intravenous injection and oral gavage, each group with 2 monkeys. The vehicle was a 20% hydroxypropyl-β-cyclodextrin aqueous solution. The compound to be tested 002 was mixed with the vehicle, then vortexed, and sonicated to prepare clear solutions of 1.0 mg/mL and 2.0 mg/mL. The intravenous injection dose was 1.0 mg/kg, and the oral gavage dose was 2.0 mg/kg. The compound to be tested 003 was mixed with the vehicle, then vortexed, and sonicated to prepare clear solutions of 0.25 mg/mL and 10.0 mg/mL. The intravenous injection dose was 0.5 mg/kg, and the oral gavage dose was 10.0 mg/kg. After administration, the whole blood was collected at the time points of 0.083 hours, 0.25 hours, 0.5 hours, 1.0 hour, 2.0 hours, 4.0 hours, 8.0 hours, 12.0 hours, and 24.0 hours. Plasma was prepared from the whole blood and analyzed for drug concentration by LC-MS/MS. Parameter meaning: Cmax is the maximum plasma concentration; AUC is the exposure; T1/2 is the half-life; Vd is the apparent volume of distribution; Cl is the clearance rate; F % is the oral bioavailability.

[3] = 30 min preincubation with NADPH
[4] = 30 min preincubation without NADPH

Human-GLP-1 receptor, sequence (P43220 24-463): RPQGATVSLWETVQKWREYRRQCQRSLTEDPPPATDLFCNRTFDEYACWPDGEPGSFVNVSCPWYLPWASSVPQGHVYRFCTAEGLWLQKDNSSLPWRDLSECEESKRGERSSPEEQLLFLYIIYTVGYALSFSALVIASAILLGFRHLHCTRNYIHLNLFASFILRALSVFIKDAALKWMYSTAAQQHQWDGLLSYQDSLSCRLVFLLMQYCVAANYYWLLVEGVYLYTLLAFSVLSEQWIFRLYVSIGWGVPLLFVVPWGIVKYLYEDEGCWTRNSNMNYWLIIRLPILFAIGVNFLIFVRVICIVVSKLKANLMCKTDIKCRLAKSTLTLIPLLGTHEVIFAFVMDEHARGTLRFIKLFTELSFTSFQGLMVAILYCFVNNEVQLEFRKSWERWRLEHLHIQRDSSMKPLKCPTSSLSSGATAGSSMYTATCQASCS
CYP2C19, sequence (P33261 whole entry): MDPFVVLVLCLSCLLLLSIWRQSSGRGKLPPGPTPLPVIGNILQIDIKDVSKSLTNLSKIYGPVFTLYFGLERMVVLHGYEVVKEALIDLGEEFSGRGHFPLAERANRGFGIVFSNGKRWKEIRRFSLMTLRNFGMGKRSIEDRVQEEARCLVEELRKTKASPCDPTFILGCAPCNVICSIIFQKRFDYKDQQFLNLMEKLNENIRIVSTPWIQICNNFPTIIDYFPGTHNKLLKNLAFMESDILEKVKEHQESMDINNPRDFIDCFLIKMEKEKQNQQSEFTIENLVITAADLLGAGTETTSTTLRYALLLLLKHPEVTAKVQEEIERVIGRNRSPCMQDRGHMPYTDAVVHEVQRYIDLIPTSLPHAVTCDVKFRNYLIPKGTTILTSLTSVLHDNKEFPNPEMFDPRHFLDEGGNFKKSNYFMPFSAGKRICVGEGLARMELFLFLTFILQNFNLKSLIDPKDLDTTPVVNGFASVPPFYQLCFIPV

EC50 (Human-GLP-1 receptor)	IC50 (CYP2C19; [3])	IC50 (CYP2C19; [4])	HMS Human (human hepatocytes)	HMS Cynomolgus monkeys (monkey liver cells)	HMS Dog (canine hepatocytes)	HMS Rat (rat hepatocytes)	other results	Structure (SMILES)
0.54 nM								C[C@]1(c2ccc(Cl)cn2)Oc2cccc(C3CCN(Cc4nc5sc(C(=O)O)c(F)c5n4C[C@@H]4CCO4)CC3)c2O1 (single isomer, unassigned) [Compound 001]
0.88 nM	29200 nM	> 50000 nM	<17.8 mL/min/kg	<23.0 mL/min/kg	115.4 mL/min/kg	138.7 mL/min/kg	F % ([1]; IV 1.0 mg/kg, PO 5.0 mg/kg): 27.1%; Cl ([1]; intravenous 1.0 mg/kg): 12.0 mL/min/kg; Vd ([1]; intravenous 1.0 mg/kg): 0.392 L/kg; AUC (PO) ([1]; oral gavage 5.0 mg/kg): 3.439 µM·h; T1/2 (PO) ([1]; oral gavage 5.0 mg/kg): 1.61 h; F % ([2]; IV 1.0 mg/kg, PO 2.0 mg/kg): 35.3%; Cl ([2]; intravenous 1.0 mg/kg): 0.505 mL/min/kg; Vd ([2]; intravenous 1.0 mg/kg): 0.155 L/kg; AUC (PO) ([2]; oral gavage 2.0 mg/kg): 42.966 µM·h; T1/2 (PO) ([2]; oral gavage 2.0 mg/kg): 11.3 h	C[C@]1(c2ccc(Cl)cn2)Oc2cccc(C3CCN(Cc4nc5sc(C(=O)O)cc5n4C[C@@H]4CCO4)CC3)c2O1 (single isomer, unassigned) [Compound 002]
0.51 nM	> 50000 nM	> 50000 nM	19.4 mL/min/kg	41.6 mL/min/kg	58.7 mL/min/kg	5.1 mL/min/kg	F % ([2]; IV 0.5 mg/kg, PO 10.0 mg/kg): 23.6%; Cl ([2]; intravenous 0.5 mg/kg): 2.85 mL/min/kg; Vd ([2]; intravenous 0.5 mg/kg): 0.489 L/kg; AUC (PO) ([2]; oral gavage 10.0 mg/kg): 10.716 µM·h; T1/2 (PO) ([2]; oral gavage 10.0 mg/kg): 8.52 h	C[C@@]1(c2ccc(Cl)cn2)Oc2cccc(N3CCN(Cc4nc5sc(C(=O)O)cc5n4C[C@H]4CCO4)CC3)c2O1 [Compound 003]
